Patent US12121500B2, “Inhibitors of Bunyaviridae and uses thereof” (priority 2020, dated 2024)
In brackets after ≈: the same amount, converted by molar mass. Like-named read-outs stand apart in the source and are kept apart here.

Experiments:
RVFV strain MP12 = test: microbe, parasite or virus in culture; assay type: cell-based, Rift Valley Fever Virus; details: for EC50: Rift Valley fever virus, Vero, read-out: Estimated EC50
RVFV [1] = test: microbe, parasite or virus in culture; assay type: cell-based, Rift Valley Fever Virus
[2] = Quantitative cytotoxicity in Vero cells, crystal violet staining of EC50 plates; details: African green monkey
C. neoformans = test: Inhibition of C. neoformans growth, limiting dilution assay; assay type: cell-based, Cryptococcus neoformans; details: Cryptococcus neoformans
human ribonuclease H1 = molecular target: T1, human ribonuclease H1 (Homo sapiens, UniProt O60930); test: biochemical; assay type: biochemical
T1 construct: made in house; host or cells: E. coli
T1 sequence (O60930 1-286): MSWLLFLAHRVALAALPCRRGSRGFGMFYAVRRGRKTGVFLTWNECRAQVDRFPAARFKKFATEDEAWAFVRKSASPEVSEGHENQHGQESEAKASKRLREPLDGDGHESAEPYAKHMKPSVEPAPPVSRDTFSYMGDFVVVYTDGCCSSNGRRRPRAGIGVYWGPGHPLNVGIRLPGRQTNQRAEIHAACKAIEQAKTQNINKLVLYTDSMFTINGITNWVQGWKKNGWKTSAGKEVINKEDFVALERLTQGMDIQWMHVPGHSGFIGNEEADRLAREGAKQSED

[3] = Cytotoxicity in HepDES19 cells, MTS assay; details: human
Staphylococcus spp. = test: Inhibition of Staphylococcus spp. growth, broth microdilution; assay type: cell-based, S. saprophyticus or S. aureus; details: Staphylococcus; 16-24 hours, Mueller-Hinton broth; — = no measurable MIC80
in vitro [4] = details: African green monkey
in vitro [5] = details: human
RVFV [6] = test: microbe, parasite or virus in culture; assay type: cell-based, Rift Valley Fever Virus; details: Rift Valley fever virus, A549, 24 h
[7] = Rift Valley fever virus, Vero, 24 h, read-out: RVFV (EC50, μM)
[8] = 48 hours at 35° C., YNB-02, read-out: C. neoformans (MIC80)
[9] = HepDES19 cells (HepG2-derived hepatoblastoma cell line)
[10] = 48 h, read-out: C. neoformans (MIC80, μM)

CCOC(=O)c1sc(NC(=O)CSc2nnc(Cc3ccccc3)o2)c(C#N)c1C [Compound 6, reference compound]
EC50 (RVFV strain MP12): ≥ 120 µM

O=c1c(O)c(-c2ccc(O)c(O)c2)oc2cc(O)c(O)c(O)c12 [Compound 7, Quercetagetin, reference compound]
EC50 (RVFV strain MP12): ≥ 120 µM

NC(=O)c1c(N)sc2c1CCCCC2 [Compound 22, reference compound]
EC50 (RVFV strain MP12): ≥ 120 µM

CC(C)c1cccc(=O)c(O)c1 [Compound 47, β-thujaplicin, reference compound]
activity against RVFV in the primary screen, in words (RVFV strain MP12): inactive
EC50 (RVFV strain MP12): ≥ 120 µM

CC(C)c1ccc(O)c(=O)cc1 [Compound 48, γ-thujaplicin, reference compound]
activity against RVFV in the primary screen, in words (RVFV strain MP12): inactive
EC50 (RVFV strain MP12): ≥ 120 µM

Cc1cc(O)c(=O)c(O)cc1C(=O)c1ccccc1 [Compound 111]
EC50 (RVFV [1]; [7]): 19 µM
CC50 at 1 day [2]: > 250 µM
MIC80 (C. neoformans; [8]): 36 µM (≈ 9.23 µg/mL)
IC50 (human ribonuclease H1): 48 µM

Cc1cc(O)c(=O)c(O)cc1-c1ccccc1 [Compound 113]
EC50 (RVFV [1]; [7]): 10.3 µM
CC50 at 1 day [2]: > 250 µM
MIC80 (C. neoformans; [8]): 24 µM (≈ 5.48 µg/mL)
IC50 (human ribonuclease H1): 174 µM

Cc1cc(O)c(=O)c(O)cc1C(=O)c1ccc(-c2ccccc2)cc1 [Compound 118]
EC50 (RVFV [1]; [7]): 11 µM
CC50 at 1 day [2]: 248 µM
MIC80 (C. neoformans; [8]): 15 µM (≈ 4.99 µg/mL)
IC50 (human ribonuclease H1): > 500 µM

Cc1cc(O)c(=O)c(O)cc1C(=O)C1CCCCC1 [Compound 120]
EC50 (RVFV [1]; [7]): 15.6 µM
CC50 at 1 day [2]: > 250 µM
MIC80 (C. neoformans; [8]): 12 µM (≈ 3.15 µg/mL)
IC50 (human ribonuclease H1): 81 µM

O=C(O)CC(=O)CC(=O)c1cccs1 [Compound 129, reference compound]
EC50 (RVFV strain MP12): ≥ 120 µM

O=C1c2ccccc2C(=O)N1O [Compound 138, reference compound]
EC50 (RVFV strain MP12): ≥ 120 µM

COC(=O)c1c(C)cc(O)c(=O)c(O)c1O [Compound 196]
EC50 (RVFV [1]; [7]): 23.9 µM
CC50 at 1 day [2]: > 250 µM
CC50 at 3 days [3, 9]: 6 µM
MIC80 (Staphylococcus spp.): 67 µM (≈ 15.2 µg/mL)
IC50 (human ribonuclease H1): 408 µM

CC1=CC(O)N(O)C(O)=C1/C(C)=N/c1ccccc1N (centres unmarked) [Compound 208]
EC50 (RVFV [1]; [7]): > 120 µM
CC50 at 1 day [2]: > 250 µM
MIC80 (C. neoformans; [10]): 30 µM (≈ 8.26 µg/mL)
EC50 (RVFV strain MP12): 14 µM
CC50 (in vitro [4]): ≥ 120 µM
CC50 at 3 days [3]: 14.4 µM
IC50 (human ribonuclease H1): 194 µM

Cc1ccc(O)c(=O)c(O)c1 [Compound 210]
EC50 (RVFV [1]; [7]): 14.6 µM
CC50 at 1 day [2]: 283 µM
MIC80 (C. neoformans; [8]): 15 µM (≈ 2.28 µg/mL)
EC50 (RVFV strain MP12): 8 µM
CC50 (in vitro [4]): ≥ 120 µM
IC50 (human ribonuclease H1): 85 µM

Cc1cc(O)c(=O)c(O)cc1-c1ccc(-c2cccc3ccccc23)cc1 [Compound 234]
EC50 (RVFV strain MP12): 19 µM
CC50 (in vitro [4]): ≥ 120 µM

O=c1c(O)ccc(-c2ccco2)cc1O [Compound 265]
EC50 (RVFV [1]; [7]): 15.4 µM
CC50 at 1 day [2]: > 250 µM
MIC80 (C. neoformans; [8]): 11 µM (≈ 2.25 µg/mL)
MIC80 (Staphylococcus spp.): 30 µM (≈ 6.13 µg/mL)
IC50 (human ribonuclease H1): 57 µM

CC(=O)c1c(C)cc(O)c(=O)c(O)c1Br [Compound 320]
EC50 (RVFV [1]; [7]): 20.1 µM
CC50 at 1 day [2]: > 120 µM
MIC80 (C. neoformans; [8]): 49 µM (≈ 13.4 µg/mL)
EC50 (RVFV strain MP12): 2 µM
CC50 at 3 days [3, 9]: 49.5 µM
CC50 (in vitro [5]): ≥ 120 µM
EC50 (RVFV [6]): 90.3 µM
IC50 (human ribonuclease H1): 37 µM

O=C1C=CC(=O)c2ccccc21 [Compound 327]
EC50 (RVFV [1]; [7]): 39.7 µM
CC50 at 1 day [2]: 42.9 µM
MIC80 (C. neoformans; [8]): 9.1 µM (≈ 1.44 µg/mL)
EC50 (RVFV strain MP12): 2 µM
CC50 at 3 days [3, 9]: 18.5 µM
CC50 (in vitro [5]): 27.5 µM
EC50 (RVFV [6]): 19.6 µM
IC50 (human ribonuclease H1): 47 µM

COC(=O)c1c(C)cc(O)c(=O)c(O)c1Br [Compound 335]
EC50 (RVFV [1]; [7]): 40.8 µM
CC50 at 1 day [2]: > 120 µM
MIC80 (C. neoformans; [10]): 50 µM (≈ 14.5 µg/mL)
EC50 (RVFV strain MP12): 3 µM
CC50 (in vitro [5]): 96.2 µM
EC50 (RVFV [6]): ≥ 120 µM
IC50 (human ribonuclease H1): 111 µM

Cc1cc(O)c(=O)c(O)cc1S(=O)(=O)c1ccccc1 [Compound 336]
EC50 (RVFV [1]; [7]): 9 µM
CC50 at 1 day [2]: 65.8 µM
MIC80 (C. neoformans; [8]): 50 µM (≈ 14.6 µg/mL)
EC50 (RVFV strain MP12): 3 µM
IC50 (human ribonuclease H1; read-out: Human RNaseH1 (IC50)): 85 µM

CC(=O)c1c(C)cc(O)c(=O)c(O)c1Cl [Compound 368]
EC50 (RVFV [1]; [7]): 25.4 µM
CC50 at 1 day [2]: > 250 µM
MIC80 (C. neoformans; [8]): 24 µM (≈ 5.49 µg/mL)
CC50 at 3 days [3, 9]: 31 µM
IC50 (human ribonuclease H1): 115 µM

CSc1cccc(O)c(=O)c1O [Compound 385]
EC50 (RVFV [1]; [7]): 25.2 µM
CC50 at 1 day [2]: > 250 µM
MIC80 (C. neoformans; [8]): 24 µM (≈ 4.42 µg/mL)
CC50 at 3 days [3, 9]: > 100 µM
IC50 (human ribonuclease H1): 176 µM

Cc1cc(O)c(=O)c(O)cc1C(=O)N1CCCCC1 [Compound 390]
EC50 (RVFV [1]; [7]): 11.9 µM
CC50 at 1 day [2]: > 250 µM
MIC80 (C. neoformans; [8]): 11 µM (≈ 2.9 µg/mL)
activity against RVFV in the primary screen, in words (RVFV strain MP12): active
EC50 (RVFV strain MP12): 0.1 µM
CC50 at 3 days [3, 9]: 29.8 µM
CC50 (in vitro [5]): ≥ 120 µM
EC50 (RVFV [6]): 9.37 µM
IC50 (human ribonuclease H1): 106 µM

C/C(=N\c1ccccc1F)c1c(C)cc(=O)n(O)c1O [Compound 516]
EC50 (RVFV strain MP12): 19 µM
CC50 (in vitro [4]): ≥ 120 µM

COc1ccc(CO/N=C(\C)c2c[nH]c(=O)[nH]c2=O)cc1 [Compound 522]
EC50 (RVFV strain MP12): ≥ 120 µM
CC50 (in vitro [4]): 1 µM

Cc1cc(O)c(=O)c(O)cc1C(=O)NCc1ccc(-c2ccccc2)cc1 [Compound 539]
EC50 (RVFV [1]; [7]): 18.6 µM
CC50 at 1 day [2]: > 300 µM
MIC80 (C. neoformans; [8]): 4.5 µM (≈ 1.63 µg/mL)
EC50 (RVFV strain MP12): 10 µM
CC50 (in vitro [4]): 71 µM
CC50 at 3 days [3, 9]: 3.6 µM
MIC80 (Staphylococcus spp.): 38 µM (≈ 13.7 µg/mL)
IC50 (human ribonuclease H1): 105 µM

C/C(=N\c1ccccc1Cl)c1c(C)cc(O)n(O)c1=O [Compound 668]
EC50 (RVFV [1]; [7]): 14 to 20 µM
EC50 (RVFV [1]; read-out: RVFV (EC50)): 19.2 µM
CC50 at 1 day [2]: > 120 µM
EC50 (RVFV strain MP12): 11 µM
CC50 (in vitro [4]): ≥ 120 µM
CC50 at 3 days [3, 9]: 76.8 µM
CC50 (in vitro [5]): 82 µM
EC50 (RVFV [6]): 35.7 µM
IC50 (human ribonuclease H1): 165 µM

COc1ccc(Cl)cc1C(=O)Sc1cccccc1=O [Compound 681]
EC50 (RVFV strain MP12): ≥ 120 µM
CC50 (in vitro [4]): 2 µM

Cc1ccc(CNC(=O)c2cc(O)c(=O)c(O)cc2C)c(C)c1 [Compound 809]
EC50 (RVFV strain MP12): 17 µM
CC50 (in vitro [4]): 64 µM

Cc1cc(O)c(=O)c(O)cc1C(=O)Nc1cccc(OCc2ccccc2)c1 [Compound 836]
EC50 (RVFV strain MP12): 13 µM
CC50 (in vitro [4]): ≥ 120 µM

Cc1ccc(Sc2cccc(O)c(=O)c2O)cc1 [Compound 838]
EC50 (RVFV [1]; [7]): 12.7 µM
CC50 at 1 day [2]: > 300 µM
MIC80 (C. neoformans; [8]): 1 µM (≈ 0.26 µg/mL)
EC50 (RVFV strain MP12): 8 µM
CC50 (in vitro [4]): 86 µM
CC50 at 3 days [3, 9]: 18.6 µM
IC50 (human ribonuclease H1): 100 µM

Cc1cc(O)c(=O)c(O)cc1C(=O)N1CCN(C(=O)C2COc3ccccc3O2)CC1 (centres unmarked) [Compound 876]
CC50 (in vitro [4]): ≥ 120 µM

Cc1cc(O)c(=O)c(O)cc1C(=O)N1CCN(c2ccc([N+](=O)[O-])c3nonc23)CC1 [Compound 920]
EC50 (RVFV strain MP12): 19 µM
CC50 (in vitro [4]): ≥ 120 µM

Cc1cc(O)c(=O)c(O)cc1C(=O)NCc1ccc(N2CCCC2)cc1 [Compound 1019]
EC50 (RVFV strain MP12): 19 µM
CC50 (in vitro [4]): ≥ 120 µM

CCCCNC(=O)c1cc(O)c(=O)c(O)cc1C [Compound 1039]
EC50 (RVFV [1]; [7]): 8.9 µM
CC50 at 1 day [2]: > 120 µM
MIC80 (C. neoformans; [8]): 12 µM (≈ 3.02 µg/mL)
EC50 (RVFV strain MP12): 6 µM
CC50 (in vitro [4]): ≥ 120 µM
CC50 (in vitro [5]): ≥ 120 µM
EC50 (RVFV [6]): 15.5 µM
